Assay results: PubChem BioAssay AID248 (DTP/NCI, 2004)
Several values for one entry are separate records, joined by “and”; a condition that tells them apart may be missing. Equal values may be shown once. Toxic doses and inconclusive results are not listed.

Test system: L1210 leukemia ip in BDF1 mice, survival T/C
Assay: NCI In Vivo Anticancer Drug Screen. Data for tumor model L1210 Leukemia (intraperitoneal) in B6D2F1 (BDF1) mice
Settings: endpoint: mean survival time, higher = longer survival
Outline: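 Transplantable tumor model; survival measured in treated vs vehicle control mice. Value = treated/control.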

[1] = dose: 100.0 mg/kg/injection, schedule: Q04DX002 (ip), vehicle: Klucel (hydroxypropylcellulose) (HPC)
[2] = dose: 100.0 mg/kg/injection, schedule: Q04DX003 (ip), vehicle: Klucel (hydroxypropylcellulose) (HPC)
[3] = dose: 200.0 mg/kg/injection, schedule: Q01DX009 (ip), vehicle: Klucel (hydroxypropylcellulose) (HPC)
[4] = dose: 200.0 mg/kg/injection, schedule: Q04DX003 (ip), vehicle: Klucel (hydroxypropylcellulose) (HPC)
[5] = dose: 400.0 mg/kg/injection, schedule: Q04DX003 (ip), vehicle: Klucel (hydroxypropylcellulose) (HPC)
[6] = dose: 50.0 mg/kg/injection, schedule: Q01DX009 (ip), vehicle: Klucel (hydroxypropylcellulose) (HPC)
[7] = dose: 100.0 mg/kg/injection, schedule: Q01DX009 (ip), vehicle: Klucel (hydroxypropylcellulose) (HPC)
[8] = dose: 100.0 mg/kg/injection, schedule: Q01DX009 (ip), vehicle: saline with Tween-80
[9] = dose: 200.0 mg/kg/injection, schedule: Q01DX009 (ip), vehicle: saline with Tween-80
[10] = dose: 400.0 mg/kg/injection, schedule: Q01DX009 (ip), vehicle: saline with Tween-80
[11] = dose: 50.0 mg/kg/injection, schedule: Q04DX003 (ip), vehicle: Klucel (hydroxypropylcellulose) (HPC)
[12] = dose: 100.0 mg/kg/injection, schedule: Q01DX001 (ip), vehicle: carboxymethylcellulose (CMC)
[13] = dose: 200.0 mg/kg/injection, schedule: Q01DX001 (ip), vehicle: carboxymethylcellulose (CMC)
[14] = dose: 400.0 mg/kg/injection, schedule: Q01DX001 (ip), vehicle: carboxymethylcellulose (CMC)
[15] = dose: 200.0 mg/kg/injection, schedule: Q04DX002 (ip), vehicle: Klucel (hydroxypropylcellulose) (HPC)
[16] = dose: 400.0 mg/kg/injection, schedule: Q04DX002 (ip), vehicle: Klucel (hydroxypropylcellulose) (HPC)

Q: Which T/C (dose: 0.5 mg/kg/injection, schedule: Q03HX024 (ip), vehicle: gum acacia) does the source give for `N#C[C@@H]1C2C=CC(CC2)[C@H]1C#N` here?
A: 106 % of control

Q: What about the T/C (dose: 0.7 mg/kg/injection, schedule: Q03HX024 (ip), vehicle: gum acacia) of the same compound?
A: 106 % of control

Q: And the T/C (dose: 1.1 mg/kg/injection, schedule: Q03HX024 (ip), vehicle: gum acacia)?
A: 106 % of control

Q: What about the T/C (dose: 1.6 mg/kg/injection, schedule: Q03HX024 (ip), vehicle: gum acacia) of the same compound?
A: 102 % of control

Q: What about the T/C (dose: 2.4 mg/kg/injection, schedule: Q01DX009 (ip), vehicle: gum acacia) of the same compound?
A: 104 % of control

Q: What about the T/C (dose: 2.4 mg/kg/injection, schedule: Q03HX024 (ip), vehicle: gum acacia) of the same compound?
A: 103 % of control

Q: And the T/C (dose: 3.6 mg/kg/injection, schedule: Q01DX009 (ip), vehicle: gum acacia)?
A: 102 % of control

Q: What about the T/C (dose: 5.0 mg/kg/injection, schedule: Q01DX001 (ip), vehicle: gum acacia) of the same compound?
A: 103 % of control

Q: And the T/C (dose: 5.0 mg/kg/injection, schedule: Q04DX003 (ip), vehicle: gum acacia)?
A: 97 % of control

Q: What about the T/C (dose: 7.0 mg/kg/injection, schedule: Q01DX001 (ip), vehicle: gum acacia) of the same compound?
A: 101 % of control

Q: And the T/C (dose: 7.0 mg/kg/injection, schedule: Q04DX003 (ip), vehicle: gum acacia)?
A: 97 % of control

Q: What about the T/C (dose: 11.0 mg/kg/injection, schedule: Q01DX001 (ip), vehicle: gum acacia) of the same compound?
A: 100 % of control

Q: What about the T/C (dose: 11.0 mg/kg/injection, schedule: Q04DX003 (ip), vehicle: gum acacia) of the same compound?
A: 92 % of control

Q: Which T/C (dose: 25.0 mg/kg/injection, schedule: Q04DX002 (ip), vehicle: Klucel (hydroxypropylcellulose) (HPC)) does the source give for `Nc1ccc(Cl)nn1` here?
A: 97 % of control

Q: And the T/C (dose: 50.0 mg/kg/injection, schedule: Q04DX002 (ip), vehicle: Klucel (hydroxypropylcellulose) (HPC))?
A: 97 % of control

Q: And the T/C [1]?
A: 100 % of control

Q: For `CC(=O)c1cc(S(=O)(=O)c2cc(C(C)=O)c(O)cc2OCc2ccccc2)c(OCc2ccccc2)cc1O`, which T/C (dose: 100.0 mg/kg/injection, schedule: Q04DX002 (ip), vehicle: carboxymethylcellulose (CMC)) is on record?
A: 103 % of control

Q: What about the T/C (dose: 200.0 mg/kg/injection, schedule: Q04DX002 (ip), vehicle: carboxymethylcellulose (CMC)) of the same compound?
A: 92 % of control

Q: What about the T/C (dose: 400.0 mg/kg/injection, schedule: Q04DX002 (ip), vehicle: carboxymethylcellulose (CMC)) of the same compound?
A: 88 % of control

Q: `CC1(C)N=C(N)N=C(N)N1c1ccc(OCc2ccc(C(=O)Nc3cccc(S(=O)(=O)F)c3)cc2)c(Cl)c1` was tested. Which T/C (dose: 25.0 mg/kg/injection, schedule: Q01DX009 (ip), vehicle: Klucel (hydroxypropylcellulose) (HPC)) did it give?
A: 100 % of control

Q: What about the T/C [2] of the same compound?
A: 124 % of control

Q: And the T/C [3]?
A: 86 % of control

Q: What about the T/C [4] of the same compound?
A: 162 % of control and 168 % of control

Q: And the T/C [5]?
A: 105 % of control and 106 % of control and 116 % of control

Q: What does the source list for `O=S(=O)(/N=C1\C=CC=C\C1=N/S(=O)(=O)c1ccccc1)c1ccccc1`?
A: T/C (dose: 100.0 mg/kg/injection, schedule: Q01DX001 (ip), vehicle: saline with Tween-80): 103 % of control; T/C (dose: 200.0 mg/kg/injection, schedule: Q01DX001 (ip), vehicle: saline with Tween-80): 100 % of control; T/C (dose: 400.0 mg/kg/injection, schedule: Q01DX001 (ip), vehicle: saline with Tween-80): 92 % of control

Q: What does the source list for `CCCCNC(C)(C)CO`?
A: T/C (dose: 12.5 mg/kg/injection, schedule: Q01DX009 (ip), vehicle: saline): 106 % of control; T/C (dose: 12.5 mg/kg/injection, schedule: Q04DX003 (ip), vehicle: saline): 100 % of control; T/C (dose: 25.0 mg/kg/injection, schedule: Q01DX009 (ip), vehicle: saline): 112 % of control; T/C (dose: 25.0 mg/kg/injection, schedule: Q04DX003 (ip), vehicle: saline): 97 % of control; T/C (dose: 50.0 mg/kg/injection, schedule: Q01DX009 (ip), vehicle: saline): 109 % of control; T/C (dose: 50.0 mg/kg/injection, schedule: Q04DX003 (ip), vehicle: saline): 102 % of control; T/C (dose: 75.0 mg/kg/injection, schedule: Q01DX009 (ip), vehicle: saline): 105 % of control

Q: For `CC(C)n1cc2cc([N+](=O)[O-])ccc2n1`, which T/C [6] is on record?
A: 91 % of control

Q: And the T/C [7]?
A: 97 % of control

Q: What about the T/C [3] of the same compound?
A: 97 % of control

Q: `CN(C)c1ccc(/C=N/N=C(N)N)cc1` was tested. Which T/C (dose: 15.0 mg/kg/injection, schedule: Q01DX Z (ip), vehicle: saline) did it give?
A: 89 % of control

Q: What about the T/C (dose: 30.0 mg/kg/injection, schedule: Q01DX Z (ip), vehicle: saline) of the same compound?
A: 92 % of control

Q: What about the T/C (dose: 30.0 mg/kg/injection, schedule: Q01DX Z (oral), vehicle: other) of the same compound?
A: 100 % of control

Q: What about the T/C (dose: 60.0 mg/kg/injection, schedule: Q01DX Z (ip), vehicle: saline) of the same compound?
A: 100 % of control

Q: What about the T/C (dose: 60.0 mg/kg/injection, schedule: Q01DX Z (oral), vehicle: other) of the same compound?
A: 97 % of control

Q: And the T/C (dose: 120.0 mg/kg/injection, schedule: Q01DX Z (oral), vehicle: other)?
A: 109 % of control

Q: How did the T/C (dose: 25.0 mg/kg/injection, schedule: Q01DX005 (ip), vehicle: saline) turn out when `O=[N+]([O-])c1ccc2c(ccn2C2OCC(O)C(O)C2O)c1` (centres undefined) was run?
A: 94 % of control and 96 % of control

Q: And the T/C (dose: 50.0 mg/kg/injection, schedule: Q01DX005 (ip), vehicle: saline)?
A: 96 % of control and 92 % of control

Q: What about the T/C (dose: 50.0 mg/kg/injection, schedule: Q01DX009 (ip), vehicle: saline with Tween-80) of the same compound?
A: 98 % of control

Q: And the T/C (dose: 100.0 mg/kg/injection, schedule: Q01DX005 (ip), vehicle: saline)?
A: 93 % of control and 91 % of control

Q: What about the T/C [8] of the same compound?
A: 98 % of control

Q: What about the T/C [9] of the same compound?
A: 102 % of control

Q: What about the T/C [10] of the same compound?
A: 111 % of control

Q: Which results are given for `O=C(O)CCC1CCCCC1=O` (centres undefined)?
A: T/C [6]: 104 % of control; T/C [11]: 98 % of control; T/C [7]: 95 % of control; T/C [2]: 97 % of control; T/C [3]: 98 % of control; T/C [4]: 98 % of control

Q: For `CSc1nc(N)c(N=Nc2ccc(S(=O)(=O)Nc3occ(C)c3C)cc2)c(=O)[nH]1`, which T/C [12] is on record?
A: 97 % of control

Q: And the T/C [13]?
A: 92 % of control

Q: What about the T/C [14] of the same compound?
A: 94 % of control

Q: Which T/C [1] does the source give for `CC1(c2ccc(F)cc2)OC(=O)c2c1ccc1ccccc21` (centres undefined) here?
A: 101 % of control

Q: What about the T/C [15] of the same compound?
A: 94 % of control

Q: And the T/C [16]?
A: 101 % of control

Q: What does the source list for `O=C(CBr)Nc1ccccc1S(=O)(=O)F`?
A: T/C (dose: 4.68 mg/kg/injection, schedule: Q01DX009 (ip), vehicle: carboxymethylcellulose (CMC)): 91 % of control; T/C (dose: 9.37 mg/kg/injection, schedule: Q01DX009 (ip), vehicle: carboxymethylcellulose (CMC)): 91 % of control; T/C (dose: 18.75 mg/kg/injection, schedule: Q01DX009 (ip), vehicle: carboxymethylcellulose (CMC)): 94 % of control; T/C (dose: 18.75 mg/kg/injection, schedule: Q04DX003 (ip), vehicle: carboxymethylcellulose (CMC)): 102 % of control; T/C (dose: 37.5 mg/kg/injection, schedule: Q04DX003 (ip), vehicle: carboxymethylcellulose (CMC)): 102 % of control; T/C (dose: 75.0 mg/kg/injection, schedule: Q01DX001 (ip), vehicle: carboxymethylcellulose (CMC)): 96 % of control

Q: What does the source list for `COC(=O)CCN1CC1(C)C` (centres undefined)?
A: T/C (dose: 25.0 mg/kg/injection, schedule: Q04DX003 (ip), vehicle: Klucel (hydroxypropylcellulose) (HPC)): 96 % of control; T/C [11]: 98 % of control; T/C [2]: 96 % of control

Q: What does the source list for `Nc1nc(N)c2cc(NCc3ccc(F)cc3)ccc2n1`?
A: T/C (dose: 3.13 mg/kg/injection, schedule: Q01DX009 (ip), vehicle: saline with Tween-80): 90 % of control; T/C (dose: 6.25 mg/kg/injection, schedule: Q01DX009 (ip), vehicle: saline with Tween-80): 92 % of control; T/C (dose: 6.25 mg/kg/injection, schedule: Q04DX003 (ip), vehicle: saline with Tween-80): 100 % of control; T/C (dose: 12.5 mg/kg/injection, schedule: Q01DX009 (ip), vehicle: saline with Tween-80): 97 % of control

Q: Which results are given for `CC(O)(C#CC(C)(O)c1ccccc1)c1ccccc1` (centres undefined)?
A: T/C [8]: 97 % of control; T/C [9]: 98 % of control; T/C [10]: 113 % of control

Q: What does the source list for `Cc1cc(N(CCCl)CCCl)ccc1/C=N\Nc1nncn1N`?
A: T/C (dose: 25.0 mg/kg/injection, schedule: Q01DX009 (ip), vehicle: carboxymethylcellulose (CMC)): 122 % of control; T/C [12]: 100 % of control; T/C (dose: 100.0 mg/kg/injection, schedule: Q01DX009 (ip), vehicle: carboxymethylcellulose (CMC)): 154 % of control; T/C [13]: 100 % of control; T/C [14]: 102 % of control

Q: `O=C(CCl)NC1C2CC3CC(C2)CC1C3` (centres undefined) was tested. Which T/C [1] did it give?
A: 104 % of control

Q: What about the T/C [15] of the same compound?
A: 101 % of control

Q: What about the T/C [16] of the same compound?
A: 96 % of control

Q: What does the source list for `CCN1C(c2ccccc2)C1c1ccccc1` (centres undefined)?
A: T/C [2]: 101 % of control; T/C [4]: 102 % of control; T/C [5]: 101 % of control
